Literature values, collected in publication PMC5766568, “Effective photo-enhancement of cellular activity of fluorophore-octaarginine antisense PNA conjugates correlates with singlet oxygen formation, endosomal escape and chromophore lipophilicity” (Scientific Reports, 2018).
Like-named read-outs stand apart in the source and are kept apart here.

From the text: This could be due to a low quantum yield for singlet oxygen formation, which unfortunately is not available.

Structure (SMILES)	log P (octanol/water)	log P (octanol/water) (fluorophore alone)
N=c1ccc2c(-c3ccc(C(=O)O)cc3C(=O)O)c3ccc(N)c(S(=O)(=O)O)c3oc-2c1S(=O)(=O)O [AF488, Alexa Fluor 488]	−1.44	–
CN(C)c1ccc2c(-c3ccccc3C(=O)[O-])c3ccc(N(C)C)cc3[o+]c2c1 [TMR fluorophore, Tetramethylrhodamine]	–	2.92
